Experimental data from patent publication US6117833A, “Bleaching compositions and method for bleaching substrates directly with air” (priority 1998, dated 2000).
Entries after “also recorded” stand apart in the source; their conditions may differ.

How the values were obtained:
[1] = Bleaching of tea-stained (BC-1) swatches by aldehyde + NHPI + air in Tergotometer (change in reflectance); settings: aldehyde 15 mM, NHPI 1 mM, carbonate buffer, 30 min, 25° C., 460 nm, average of 2 values (6 for * = Exceptional Bleaching Aldehyde)
Protocol: A general outline of the essential steps in our experimental protocol are shown below.
a) Measure the initial reflectance of the swatches (Ri).
b) Saturate the wash solution with air.
c) Wash, rinse and dry the swatches.
d) Measure the final reflectance of the swatches (Rf).
All work was conducted in a Tergotometer with 2L stainless steel pots. The swatches were dried flat on a rack in a Kenmore dryer. […] The conditions utilized were as follows:
Initiator N-Hydroxyphthalimide (NHPI, 1 mM)
Aldehyde Aldehyde (15 mM)
Each Tergotometer Pot was filled with 1 liter of milli-Q-water containing carbonate buffer solution which was saturated for 15 minutes with air under agitation at 25° C. Tea stained (BC-1) swatches were washed for 30 minutes in the presence of aldehyde, air and NHPI at pH=8 (25° C.). The corresponding controls (buffer alone, NHPI alone and aldehyde alone) were performed simultaneously. All swatches were rinsed twice for 3 minutes with agitation at 25° C. and dried flat on a rack in a Kenmore with soft heat for 30 minutes.
To quantify the degree of stain removal, the reflectance of 4 stained swatches (4 per pot) were measured before and after washing using a Gardner reflectometer (Model #2000) set at 460*nm (*UV filter). The change in reflectance (ΔR) was determined by taking the difference of the swatch before and after each washing. The standard deviation (σ) and ΔΔRave was assigned to each experimental group.
Rl =Initial reflectance of stained swatch before washing.
Rf =Final reflectance of stained swatch after washing.
ΔRaldehyde system+control -ΔRcontrol =ΔΔR
ΔΔRave =Represents the average bleaching by the aldehyde system.
In general, the larger the ΔΔRave value, the greater the bleaching and cleaning.
(σ)=[Σ^n aj -aa)^2 /N-I]^0.5
Σ^n =sum (aj -aa)^2 per measurement
N=number of measurements=8

[2] = Bleaching on BC-1 by 4-Ethylbenzaldehyde with various initiators; parameters: key to Δ(ΔR), #1 / Δ(ΔR), #2 / Δ(ΔR), #3 / Δ(ΔR), Average / ΔΔRave: Δ(ΔR): reflectance change of stained cloth relative to buffer ΔR; settings: for cleaning / bleaching (in words): initiator alone or 4-EBA alone; for Δ(ΔR), Average / Δ(ΔR), #1 / Δ(ΔR), #2 / Δ(ΔR), #3: 1 mM, σav = 0.4; for Δ(ΔR), Average: average of #1-#3; for Δ(ΔR), #1: run #1; for Δ(ΔR), #2: run #2; for Δ(ΔR), #3: run #3
Protocol: A series of experiments were conducted to evaluate the bleaching effectiveness of NHPI and related imides. Table IV reports the effectiveness on tea stained cloth swatches by various imide initiators in combination with 4-ethylbenzaldehyde.
Value for Carbonate Buffer = ΔR
Value for Initiator = Δ(ΔR)
Value for 4EBA + Initiator = Δ(ΔR)
* = Statistically significant bleaching over buffer alone (σav

| Structure (SMILES) | ΔΔRave on BC-1 at pH = 8 [1] | other results |
| --- | --- | --- |
| CC(C)C=O [Isobutyraldehyde] | 0.4 | – |
| O=CCCCC=O | 0.7 | – |
| COc1ccccc1C=O [2-Methoxybenzaldehyde] | 0.8 | – |
| O=Cc1ccc(C=O)cc1 [Phenyl-1,4-dicarboxyaldehyde] | -1.1 | – |
| O=Cc1ccc([N+](=O)[O-])cc1 [4-Nitrobenzaldehyde] | 0.3 | – |
| O=Cc1cccc(Oc2ccccc2)c1 [3-Phenoxybenzaldehyde] | 1.1 | – |
| O=Cc1ccc(C(F)(F)F)cc1 [4-Trifluoromethylbenzaldehyde] | 0.3 | – |
| O=Cc1cc([N+](=O)[O-])cc([N+](=O)[O-])c1 [3,5-Dinitrobenzaldehyde] | 0.1 | – |
| Cc1ccccc1C=O [2-Methylbenzaldehyde] | 5.8 | – |
| O=Cc1ccc(O)cc1 [4-Hydroxybenzaldehyde] | 0.7 | – |
| O=Cc1ccccc1C=O [Phenyl-1,2-dicarboxyaldehyde] | 1.1 | – |
| Cc1cccc(C=O)c1 [3-Methylbenzaldehyde] | 10.0 | – |
| CCCOc1ccc(C=O)cc1 [4-Propyoxybenzaldehyde] | 0.2 | – |
| COc1ccc(C=O)cc1 [4-Methoxybenzaldehyde] | 1.2 | – |
| COc1cc(C=O)cc(OC)c1 [3,5-Dimethoxybenzaldehyde] | 1.4 | – |
| O=Cc1cccc(Br)c1 [3-Bromobenzaldehyde] | 3.2 | – |
| O=Cc1cc(F)cc(F)c1 [3,5-Difluorobenzaldehyde] | 0.9 | – |
| COc1cccc(C=O)c1 [3-Methoxybenzaldehyde] | 0.6 | – |
| CN(C)c1ccc(C=O)cc1 [4-Dimethylaminobenzaldehyde] | 1.0 | – |
| O=Cc1ccc(F)cc1 [4-Fluorobenzaldehyde] | 1.6 | – |
| CCCCCCCCCCC=O [n-Undecylaldehyde] | 0.0 | – |
| O=Cc1cccc(O)c1 [3-Hydroxybenzaldehyde] | 0.8 | – |
| CCCCCCOc1ccc(C=O)cc1 [4-Hexyloxybenzaldehyde] | 0.5 | – |
| CC(C=O)c1ccccc1 (stereo not drawn) [2-Phenylpropionaldehyde] | 0.1 | – |
| Cc1cc(C)c(C=O)c(C)c1 [2,4,6-Trimethylbenzaldehyde] | 6.3 | – |

| Structure (SMILES) | ΔΔRave on BC-1 at pH = 8 [1] | other results |
| --- | --- | --- |
| CC(C)(C)c1cc(C=O)cc(C(C)(C)C)c1O [4-Hydroxy-3,5-t-Butylbenzaldehyde] | 0.0 | – |
| O=Cc1cccc(F)c1 [3-Fluorobenzaldehyde] | 0.6 | – |
| O=C[C@H](O)[C@@H](O)[C@H](O)[C@H](O)CO [D-Glucose] | 0.6 | – |
| CCCCCCCCCC=O [n-Decylaldehyde] | 0.6 | – |
| O=Cc1ccccc1S(=O)(=O)O [1-Formylbenzene-2-sulfonic acid] | 0.5 | – |
| O=Cc1ccccc1F [2-Fluorobenzaldehyde] | 1.0 | – |
| O=Cc1cccc([N+](=O)[O-])c1 [3-Nitrobenzaldehyde] | 1.2 | – |
| COc1ccc(C=O)cc1C [4-Methoxy-3-Methylbenzaldehyde] | 0.4 | – |
| CC(C)(C)c1ccc(C=O)cc1 [4-t-Butylbenzaldehyde] | 1.3 | – |
| O=Cc1cc(Cl)cc(Cl)c1 [3,5-Dichlorobenzaldehyde] | -0.2 | – |
| Cc1ccc(Oc2cccc(C=O)c2)cc1 [3-(4-Methylphenoxy)benzaldehyde] | 0.0 | – |
| O=Cc1ccccc1[N+](=O)[O-] [2-Nitrobenzaldehyde] | 0.1 | – |
| O=Cc1ccccc1O [2-Hydroxybenzaldehyde] | 0.4 | – |
| O=Cc1cccc(C(F)(F)F)c1 [3-Trifluoromethylbenzaldehyde] | 3.1 | – |
| O=Cc1ccc(S(=O)(=O)O)o1 [5-Formylfuran-2 sulfonic Acid] | -3.3 | – |
| O=Cc1ccccc1Cl [2-Chlorobenzaldehyde] | 8.7 | – |
| CCCC=O [n-Butyraldehyde] | 0.6 | – |
| Cc1cc(C)cc(C=O)c1 [3,5-Dimethylbenzaldehyde] | 9.3 | – |
| O=Cc1ncc[nH]1 [2-Imidazolecarboxy Aldehyde] | -0.5 | – |
| CCCCCC(C=O)=Cc1ccccc1 [α-Amylcinnamaldehyde] | 1.0 | – |
| O=Cc1c(Cl)cccc1Cl [2,6-Dichlorobenzaldehyde] | 0.0 | – |
| O=Cc1ccccc1Br [2-Bromobenzaldehyde] | 2.1 | – |
| O=Cc1ccco1 [2-Furfural] | 0.2 | – |
| CCCCCCC=O [n-Heptyladehyde] | 0.8 | – |
| CC(C)c1ccc(C=O)cc1 [4-Isopropylbenzaldehyde] | 1.5 | – |

| Structure (SMILES) | ΔΔRave on BC-1 at pH = 8 [1] | other results |
| --- | --- | --- |
| CCc1ccc(C=O)cc1 [4-Ethylbenzaldehyde] | 11.5 | cleaning / bleaching (in words) [2]: small and inconsistent; also recorded: do not effectively clean stubborn tea stains |
| O=Cc1ccc(Cl)cc1 [4-Chlorobenzaldehyde] | -0.1 | – |
| O=CC(O)CO (racemic) [DL-Glyceraldehyde] | -0.8 | – |
| Cc1ccc(C)c(C=O)c1 [2,5-Dimethylbenzaldehyde] | 8.8 | – |
| O=CC=O [Glyoxal] | 0.6 | – |
| O=Cc1ccccc1 [Benzaldehyde] | 1.5 | – |
| O=C1c2ccccc2C(=O)N1O [NHPI, N-hydroxyphthalimide] | – | ΔΔRave ([2]; initiator alone): -0.2; cleaning / bleaching (in words) [2]: did not provide a cleaning benefit; Δ(ΔR), Average ([2]; initiator alone): -0.3; Δ(ΔR), #1 ([2]; initiator alone): -0.1; Δ(ΔR), #2 ([2]; initiator alone): 0.1; Δ(ΔR), #3 ([2]; initiator alone): -0.7 |
| Cc1ccc(C=O)cc1C [3,4-Dimethylbenzaldehyde] | 10.3 | – |
| O=C1CCC(=O)N1O [NHSI] | – | Δ(ΔR), Average ([2]; initiator alone): 0.0; Δ(ΔR), #1 ([2]; initiator alone): 0.0; Δ(ΔR), #2 ([2]; initiator alone): 0.0; Δ(ΔR), #3 ([2]; initiator alone): 0.0 |
| O=Cc1cccc(Cl)c1 [3-Chlorobenzaldehyde] | 1.9 | – |
| O=CN1CCOCC1 [4-Formylmorpholine] | 0.1 | – |
| O=C/C=C/c1ccccc1 [trans-Cinnamaldehyde] | 1.2 | – |
| CCCCCCCCCCCC=O [n-Dodecylaldehyde] | 0.2 | – |
| O=Cc1cccc(C=O)c1 [Phenyl-1,3-dicarboxyaldehyde] | 0.2 | – |
| CC1(C)CCCC(C)(C)N1[O] [TEMPO] | – | Δ(ΔR), Average ([2]; initiator alone): 1.8; Δ(ΔR), #1 ([2]; initiator alone): 1.8; Δ(ΔR), #2 ([2]; initiator alone): 1.8; Δ(ΔR), #3 ([2]; initiator alone): 1.9 |
| O=Cc1ccc(C(=O)O)cc1 [4-Carboxybenzaldehyde] | -0.1 | – |
| C/C=C/C=O [Crotonaldehyde] | 0.7 | – |
| O=Cc1ccccc1C(F)(F)F [2-Trifluoromethylbenzaldehyde] | 10.2 | – |
| O=Cc1c(F)c(F)cc(F)c1F [2,3,5,6-Tetrafluorobenzaldehyde] | 0.3 | – |
| Cc1ccc(C=O)c(C)c1 [2,4-Dimethylbenzaldehyde] | 8.9 | – |
| O=C1C=CC(=O)N1O [NHMI] | – | Δ(ΔR), Average ([2]; initiator alone): 0.3; Δ(ΔR), #1 ([2]; initiator alone): 0.6; Δ(ΔR), #2 ([2]; initiator alone): 0.1; Δ(ΔR), #3 ([2]; initiator alone): 0.3 |
| Cc1ccc(C=O)cc1 [4-Methylbenzaldehyde] | 8.3 | – |
| O=Cc1ccc(Br)cc1 [4-Bromobenzaldehyde] | 0.1 | – |
| O=C1CC(S(=O)(=O)O)C(=O)N1O (stereo not drawn) [NHSISA] | – | Δ(ΔR), Average ([2]; initiator alone): 0.2; Δ(ΔR), #1 ([2]; initiator alone): 0.2; Δ(ΔR), #2 ([2]; initiator alone): 0.5; Δ(ΔR), #3 ([2]; initiator alone): 0.0 |
| CCOc1ccc(C=O)cc1 [4-Ethoxybenzaldehyde] | 0.4 | – |
